Reference: patent US20080262014A1, “Use of Camptothecin Derivatives for the Treatment of Proliferative Diseases in a Fixed Dosing Regimen” (priority 2004, published 2008)
Entries after “also recorded” stand apart in the source; their conditions may differ.

What was measured:
clinical = assay: clinical; parameters: species or system patients; settings: human, in vivo
Source text: The optimal dose and schedule of gimatecan stems mainly from the putative therapeutic window identified from the PK/PD analysis of completed phase I data. The target range of cumulative gimatecan cycle exposure (AUC 5,000-10,000 (ng)(hr)/mL) was selected because it produces partial responses and yet is below the exposure where grade III/IV neutropenia and thrombocytopenia adverse events became evident (FIG. 1). […] This may explain why toxicity could not be differentiated among the three schedules; all three schedules exceeded the putative effective daily exposure and were in a potentially toxic range. […] The flat dose is dosed every third day, or once every three days, or every 72 hours, or at one half-life to avoid potential accumulation. The starting doses are chosen to target a systemic exposure of 200-400 (ng)(hr)/mL (the “therapeutic window”) once every three days.

[1] = Clinical pharmacokinetics (disposition) of oral gimatecan in phase I patients with refractory malignancies; assay type: in vivo
Procedure: The disposition of oral gimatecan is evaluated in patients with refractory malignancies administered on a daily schedule for 5, 10, or 15 consecutive days or a weekly schedule for 3 weeks of a 28 day cycle. The disposition of gimatecan using these four schedules are depicted in FIGS. 3 (a-d). Clinical pharmacokinetics is assessed on the first and last days of the first cycle of daily dosing. […] However, patients were dosed based on their body surface area. Patients who responded to gimatecan had taken 0.45 mg, 0.9 mg, 1.1 mg or 1.6 mg which made it difficult to pick an effective dose.

CC[C@@]1(O)C(=O)OCc2c1cc1n(c2=O)Cc2c-1nc1ccccc1c2/C=N/OC(C)(C)C [gimatecan, 7-(t-butoxy)imino methyl camptothecin]
AUC at 1 day (clinical): 200 to 400 ng·h/mL | AUC at 1 cycle (clinical; iv): 5000 to 10000 ng·h/mL | body surface area as predictor of gimatecan clearance ([1]; 78 patients receiving four schedules): lack of correlation; also recorded: not a good predictor; also recorded: not predicted by body surface area | half-life ([1]; human, in vivo, oral, estimated from 10 patients receiving the weekly schedule, read-out: terminal harmonic mean half-life (converted)): 86 h | apparent oral clearance, dependence on dose ([1]; oral, four schedules): independent of dose | drug accumulation ([1]; weekly and daily schedule): Drug accumulation is observed
